Reference: patent publication US20020094522A1, “Means and methods for monitoring non-nucleoside reverse transcriptase inhibitor antiretroviral therapy and guiding therapeutic decisions in the treatment of HIV/AIDS” (priority 2000, published 2002)

What was measured:
[1] = test system: Y188H-RTV (HIV reverse transcriptase Y188H)
Source text: (§1) The resistance test vectors containing a functional luciferase gene cassette were constructed and host cells were transfected with the resistance test vector DNA. The resistant test vectors contained patient-derived reverse transcriptase and protease sequences that were either susceptible or resistant to the antiretroviral agents, such as nucleoside reverse transcriptase inhibitors, non-nucleoside reverse transcriptase inhibitors and protease inhibitors. The resistance test vector viral particles produced by transfecting the resistance test vector DNA into host cells, either in the presence or absence of protease inhibitors, were used to infect target host cells grown either in the absence of NRTI or NNRTI or in the presence of increasing concentrations of the drug. The amount of luciferase activity produced in infected target host cells in the presence of drug was compared to the amount of luciferase produced in infected target host cells in the absence of drug. Drug resistance was measured as the amount of drug required to inhibit by 50% the luciferase activity detected in the absence of drug (inhibitory concentration 50%, IC50). The IC50 values were determined by plotting percent drug inhibition vs. log10 drug concentration.
Host cells were seeded in 10-cm-diameter dishes and were transfected several days after plating with resistance test vector plasmid DNA and the envelope expression vector. Transfections were performed using a calcium-phosphate precipitation procedure. The cell culture media containing the DNA precipitate was replaced with fresh medium, from one to 24 hours, after transfection. Cell culture media containing resistance test vector viral particles was harvested one to four days after transfection and was passed through a […] filter before being stored at −80° C. HIV capsid protein (p24) levels in the harvested cell culture media were determined by an EIA method as described by the manufacturer (SIAC; Frederick, Md.). Before infection, target cells (293 and 293/T) were plated in cell culture media. Control infections were performed using cell culture media from mock transfections (no DNA) or transfections containing the resistance test vector plasmid DNA without the envelope expression plasmid. One to three or more days after infection the media was removed and cell lysis buffer (Promega) was added to each well. […] The inhibitory effect of the drug was determined using the following equation: […]
where RLUluc [drug] is the relative light unit of luciferase activity in infected cells in the presence of drug and RLUluc is the Relative Light Unit of luciferase activity in infected cells in the absence of drug. IC50 values were obtained from the sigmoidal curves that were generated from the data by plotting the percent inhibition of luciferase activity vs. the log10 drug concentration.

[2] = test system: RTV-300 (patient sample 97-300); assay: Phenotypic susceptibility assay, RTV-300; type: cell-based, HIV-1; details: RTV-300, patient-derived pool
Method: (§2) Transfections were performed using a calcium-phosphate precipitation procedure. […] Cell lysates were assayed for luciferase activity (FIG. 3).
(§3) The drug inhibition curves are shown in (FIG. 3).
A resistance test vector was constructed as described in Example 1 from a patient sample designated 97-300. This patient had been previously treated with d4T and 3TC (NRTIs), indinavir (a PRI) and efavirenz (an NNRTI). Isolation of viral RNA and RT/PCR was used to generate a patient derived segment that comprised viral sequences coding for all of PR and aa 1-313 of RT. The PDS was inserted into an indicator gene viral vector to generate a resistance test vector designated RTV-300. RTV-300 was then tested in a phenotypic assay to determine accurately and quantitatively the level of susceptibility to a panel of anti-retroviral drugs. […] An IC50 was determined for the resistance test vector pool for each drug tested. The pattern of susceptibility to all of the drug tested was examined and compared to known patterns of susceptibility.

[3] = test system: RTV-652 (patient sample 98-652); type: cell-based, HIV-1; details: values <1 = increased susceptibility
Source text: as §1, with “The amount of luciferase activity produced in infected target host cells in the presence of drug was compared to the amount of luciferase produced in infected target host cells in the absence of drug. Drug resistance was measured as the amount of drug required to inhibit by 50% the luciferase activity detected in the absence of drug (inhibitory concentration 50%, IC50).” left out
(§4) Host cells were seeded in 10-cm-diameter dishes and were transfected several days after plating with resistance test vector plasmid DNA and the envelope expression vector. […] HIV capsid protein (p24) levels in the harvested cell culture media were determined by an EIA method as described by the manufacturer (SIAC; Frederick, Md.). […] The inhibitory effect of the drug was determined using the following equation: […]
An IC50 was determined for the resistance test vector pool for each drug tested.

[4] = test system: RTV-1058 Clone 5 (L100I and K103N); assay: Phenotypic susceptibility assay, RTV-1058 clone 5; type: cell-based, HIV-1
Method: (§5) The resistance test vectors containing a functional luciferase gene cassette were constructed and host cells were transfected with the resistance test vector DNA. The resistant test vectors contained patient-derived reverse transcriptase and protease sequences that were either susceptible or resistant to the antiretroviral agents, such as nucleoside reverse transcriptase inhibitors, non-nucleoside reverse transcriptase inhibitors and protease inhibitors. […] The IC50 values were determined by plotting percent drug inhibition vs. log10 drug concentration.
as §4
A resistance test vector was constructed as described in Example 1 from a patient sample designated 98-1058. […] An IC50 was determined for the resistance test vector pool for each drug tested.

[5] = test system: K103N-Y188L-RTV; assay: Phenotypic susceptibility assay, K103N-Y188L-RTV; type: cell-based, HIV-1; details: site directed mutant
Method: as §5, §4
(§6) The mutations Y188L, L100I and K103N were introduced alone and in combinationn into resistance test vectors using the mega-primer method for site-directed mutagenesis (Sakar and Sommar, Ibid.). […] We determined the pattern of phenotypic susceptibility to the NNRTIs, delavirdine, nevlrapine and efavirenz, in all 6 vectors.

[6] = test system: L100I-K103N-RTV; assay: Phenotypic susceptibility assay, L100I-K103N-RTV; type: cell-based, HIV-1; details: site directed mutant
Method: as §5, §4, §6

[7] = test system: L100I-K103N-Y188L-RTV; assay: Phenotypic susceptibility assay, L100I-K103N-Y188L-RTV; type: cell-based, HIV-1; details: site directed mutant
Method: as §5, §4, §6

[8] = test system: P236L-RTV (HIV reverse transcriptase P236L); assay: Phenotypic susceptibility assay, P236L-RTV; type: cell-based, HIV-1; details: P236L mutation alone
Method: as §2, §3
Resistance test vectors were constructed containing the P236L mutation alone and in combination with other known drug resistance mutations (K103N, Y181C) that are known to modulate the susceptibility of HIV-1 to NNRTIs. […] The P236L mutation was also introduced into a RTV containing mutations at K103N, Y181C or both (K103N+Y181C).

[9] = test system: Tyr181Cys (Y181C) mutation variant; details: Y181C variant selected during nevirapine monotherapy; cited from earlier work
[10] = test system: Y181C-RTV (HIV reverse transcriptase Y181C); assay: Phenotypic susceptibility assay, Y181C-RTV; type: cell-based, HIV-1
Source text: as §1, with “The amount of luciferase activity produced in infected target host cells in the presence of drug was compared to the amount of luciferase produced in infected target host cells in the absence of drug. Drug resistance was measured as the amount of drug required to inhibit by 50% the luciferase activity detected in the absence of drug (inhibitory concentration 50%, IC50).” left out
as §4

Structure (SMILES): Cc1ccnc2c1NC(=O)c1cccnc1N2C1CC1 [nevirapine]
- fold loss of susceptibility compared to wild type control RTV [1]: 3.5 fold
- fold decrease in susceptibility (IC50) [2]: greater than 800 fold
- fold change in susceptibility (IC50) [3]: 5 fold
- fold loss of susceptibility (IC50) [4]: 120 fold
- fold loss of susceptibility compared to wild type control RTV [5]: greater than 800 fold
- fold loss of susceptibility compared to wild type control RTV [6]: 70 fold
- fold loss of susceptibility compared to wild type control RTV [7]: greater than 800 fold
- change in susceptibility compared to wild type reference RTV [8]: no significant change in nevirapine susceptibility
- reduction in sensitivity [9]: 100 fold

Structure (SMILES): O=C1Nc2ccc(Cl)cc2[C@@](C#CC2CC2)(C(F)(F)F)O1 [efavirenz]
- fold loss of susceptibility compared to wild type control RTV ([10]; Y181C-RTV, site directed mutant): 4 fold
- fold loss of susceptibility compared to wild type control RTV ([10]; {}): 3 fold

Structure (SMILES): CC(C)Nc1cccnc1N1CCN(C(=O)c2cc3cc(NS(C)(=O)=O)ccc3[nH]2)CC1 [delavirdine]
- fold decrease in susceptibility (IC50) [2]: 25 fold
- fold change in susceptibility (IC50) [3]: 0.97 fold
- fold loss of susceptibility (IC50) [4]: 250 fold
- change in susceptibility compared to wild type reference RTV [8]: less susceptible to delavirdine than a wild type reference RTV
